Experimental data as given in patent US20240150377A1, “MODULATORS OF CYSTIC FIBROSIS TRANSMEMBRANE CONDUCTANCE REGULATOR” (VERTEX PHARMACEUTICALS INCORPORATED, priority 2020, published 2024).

Each molecule was assayed against T1, CFTR (Homo sapiens, UniProt P13569, DEL508-508) (assay: HBE2 assay: Ussing chamber assay of CFTR-mediated short-circuit currents). Conditions: 3 μM corrector; F508del/MF-HBE cells; with 44 nM potentiator, 18-24 hours, 20% human serum.
T1 construct: endogenous in cells; host or cells: primary human bronchial epithelial cells from CF subjects (F508del/MF-HBE), differentiated at air-liquid interface
Assay type: cell-based
How it was run: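 F508del/MF-HBE cultured >14 days at air-liquid interface, mounted in Ussing chambers; transepithelial short-circuit current recorded under voltage clamp (Vhold=0 mV) at 37 °C. CFTR-mediated ISC (μA/cm^2) taken as peak forskolin response relative to steady-state current after inhibition; corrector activity assessed this way.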

T1 sequence (P13569 with tags, fused parts or gaps DEL508-508): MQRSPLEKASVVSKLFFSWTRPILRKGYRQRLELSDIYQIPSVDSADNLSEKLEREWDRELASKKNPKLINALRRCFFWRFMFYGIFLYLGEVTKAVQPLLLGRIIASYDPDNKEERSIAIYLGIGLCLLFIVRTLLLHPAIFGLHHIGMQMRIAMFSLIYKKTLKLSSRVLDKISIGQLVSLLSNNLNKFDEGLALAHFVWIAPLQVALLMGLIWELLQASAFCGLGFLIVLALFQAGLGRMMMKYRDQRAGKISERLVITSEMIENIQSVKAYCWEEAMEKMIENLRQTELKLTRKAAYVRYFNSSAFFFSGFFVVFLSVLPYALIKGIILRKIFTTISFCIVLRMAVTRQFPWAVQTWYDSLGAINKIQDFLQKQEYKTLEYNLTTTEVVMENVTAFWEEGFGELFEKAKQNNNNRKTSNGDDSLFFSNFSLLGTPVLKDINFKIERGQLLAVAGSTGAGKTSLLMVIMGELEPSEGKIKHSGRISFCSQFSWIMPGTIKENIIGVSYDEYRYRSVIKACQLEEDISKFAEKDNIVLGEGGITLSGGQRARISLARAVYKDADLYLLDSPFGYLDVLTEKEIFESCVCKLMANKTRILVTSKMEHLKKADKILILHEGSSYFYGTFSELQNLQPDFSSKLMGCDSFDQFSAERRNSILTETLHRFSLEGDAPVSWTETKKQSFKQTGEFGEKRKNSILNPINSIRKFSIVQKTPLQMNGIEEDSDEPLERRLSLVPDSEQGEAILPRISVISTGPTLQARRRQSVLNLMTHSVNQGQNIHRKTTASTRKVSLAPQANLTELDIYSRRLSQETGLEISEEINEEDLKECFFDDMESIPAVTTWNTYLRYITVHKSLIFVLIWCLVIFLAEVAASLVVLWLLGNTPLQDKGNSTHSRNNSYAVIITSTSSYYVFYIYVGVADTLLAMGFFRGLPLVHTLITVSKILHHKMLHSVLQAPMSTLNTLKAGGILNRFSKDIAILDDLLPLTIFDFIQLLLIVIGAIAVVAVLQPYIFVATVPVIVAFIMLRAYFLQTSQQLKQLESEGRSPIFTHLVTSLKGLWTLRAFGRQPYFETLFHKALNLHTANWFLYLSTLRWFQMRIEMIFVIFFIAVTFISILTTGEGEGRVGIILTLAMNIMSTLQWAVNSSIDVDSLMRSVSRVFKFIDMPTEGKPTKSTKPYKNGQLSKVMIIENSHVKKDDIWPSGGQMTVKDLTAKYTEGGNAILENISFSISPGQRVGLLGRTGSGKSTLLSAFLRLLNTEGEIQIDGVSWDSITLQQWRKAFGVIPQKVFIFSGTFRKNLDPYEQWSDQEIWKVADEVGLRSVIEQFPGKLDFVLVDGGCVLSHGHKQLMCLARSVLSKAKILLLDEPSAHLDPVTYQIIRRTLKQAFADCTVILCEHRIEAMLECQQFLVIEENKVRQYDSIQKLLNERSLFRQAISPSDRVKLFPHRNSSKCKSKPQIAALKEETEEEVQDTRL

Row | Structure (SMILES) | HBE2 Activity at 3 μM (%)
1 | Cc1cccc(C)c1-c1cc2nc(n1)NS(=O)(=O)c1cccc(c1)C(=O)N(Cc1cnc3cc(C(C)C)n(C)c3n1)[C@H](CCC1CC1)CO2 [Compound 1828] | +++ (+++ is >60+)
2 | Cc1cccc(C)c1-c1cc2nc(n1)NS(=O)(=O)c1cccc(c1)C(=O)N(Cc1cnc3cc(C(C)C)n(C)c3n1)[C@H](CC1(C)CCC1)CO2 [Compound 1829] | +++ (+++ is >60+)
3 | Cc1cccc(C)c1-c1cc2nc(n1)NS(=O)(=O)c1cccc(c1)C(=O)N(Cc1cnc3cc(C(C)C)n(C)c3n1)[C@H](CC1CCC1)CO2 [Compound 1830] | +++ (+++ is >60+)
4 | Cc1cccc(C)c1-c1cc2nc(n1)NS(=O)(=O)c1cccc(c1)C(=O)N(Cc1cnc3cc(C(C)C)n(C)c3n1)[C@H](CC1(C)CC1)CO2 [Compound 1831] | +++ (+++ is >60+)
5 | Cc1cccc(C)c1-c1cc2nc(n1)NS(=O)(=O)c1cccc(n1)C(=O)N(Cc1cncc(N(C)C3CCC3)n1)[C@H](CC(C)(C)C)CO2 [Compound 1832] | +++ (+++ is >60+)
6 | Cc1cccc(C)c1-c1cc2nc(n1)NS(=O)(=O)c1cccc(c1)C(=O)N(Cc1cnc(C)c(N3CC[C@H]3C)n1)[C@H](CC(C)(C)C)CO2 [Compound 1833] | +++ (+++ is >60+)
7 | Cc1cccc(C)c1-c1cc2nc(n1)NS(=O)(=O)c1cccc(c1)C(=O)N(Cc1cnc3cc(C(C)C)n(C)c3n1)[C@H](CC(C)C)CO2 [Compound 1834] | +++ (+++ is >60+)
8 | Cc1cccc(C)c1-c1cc2nc(n1)NS(=O)(=O)c1cccc(c1)C(=O)N(Cc1cnc3cc(C(C)C)n(C)c3n1)[C@H](CC1(C(F)(F)F)CC1)CO2 [Compound 1835] | +++ (+++ is >60+)
9 | Cc1cccc(C)c1-c1cc2nc(n1)NS(=O)(=O)c1cccc(c1)C(=O)N(Cc1cnc3cc(C(C)C)n(C)c3n1)[C@H](CC(C)(C)C(F)(F)F)CO2 [Compound 1836] | +++ (+++ is >60+)
10 | Cc1cccc(C)c1-c1cc2nc(n1)NS(=O)(=O)c1cccc(c1)C(=O)N(Cc1cncc(N3CCC34CCC4)n1)[C@H](CCC(C)(C)C)CO2 [Compound 1837] | +++ (+++ is >60+)
11 | Cc1cccc(C)c1-c1cc2nc(n1)NS(=O)(=O)c1cccc(c1)C(=O)N(Cc1cncc(N3CCC[C@@H]4CC[C@@H]43)n1)[C@H](CC1CC1)CO2 [Compound 1839] | +++ (+++ is >60+)
12 | Cc1cccc(C)c1-c1cc2nc(n1)NS(=O)(=O)c1cccc(c1)C(=O)N(Cc1cncc(N3CCC[C@@H]4CC[C@@H]43)n1)[C@H](CC(C)(C)F)CO2 [Compound 1840] | +++ (+++ is >60+)
13 | Cc1cccc(C)c1-c1cc2nc(n1)NS(=O)(=O)c1cccc(c1)C(=O)N(Cc1cncc(C(C)C)n1)[C@H](CCC(C)(C)C)CO2 [Compound 1842] | +++ (+++ is >60+)
14 | Cc1cccc(C)c1-c1cc2nc(n1)NS(=O)(=O)c1cccc(c1)C(=O)N(Cc1cncc(N(C)C3CCC3)n1)[C@H](CC1CCCC1)CO2 [Compound 1844] | +++ (+++ is >60+)
15 | Cc1cccc(C)c1-c1cc2nc(n1)NS(=O)(=O)c1cccc(c1)C(=O)N(Cc1cncc(N(C)CC(C)C)n1)[C@H](CC1CCCC1)CO2 [Compound 1845] | +++ (+++ is >60+)
16 | Cc1cccc(C)c1-c1cc2nc(n1)NS(=O)(=O)c1cccc(c1)C(=O)N(Cc1cncc(N3CCC[C@H]3C(C)C)n1)[C@H](CC1CCCC1)CO2 [Compound 1846] | +++ (+++ is >60+)
17 | Cc1cccc(C)c1-c1cc2nc(n1)NS(=O)(=O)c1cccc(c1)C(=O)N(Cc1cncc(N3CCCC[C@H]3C)n1)[C@H](CC1CCCC1)CO2 [Compound 1847] | +++ (+++ is >60+)
18 | Cc1cccc(C)c1-c1cc2nc(n1)NS(=O)(=O)c1cccc(c1)C(=O)N(Cc1cncc(N(C)[C@H]3C[C@@H](F)C3)n1)[C@H](CCC(C)(C)C)CO2 [Compound 1848] | +++ (+++ is >60+)
19 | Cc1cccc(C)c1-c1cc2nc(n1)NS(=O)(=O)c1cccc(c1)C(=O)N(Cc1cncc(N(C)[C@H]3C[C@H](F)C3)n1)[C@H](CCC(C)(C)C)CO2 [Compound 1849] | +++ (+++ is >60+)
20 | CCN(c1cncc(CN2C(=O)c3cccc(c3)S(=O)(=O)Nc3nc(cc(-c4c(C)cccc4C)n3)OC[C@H]2CCC(C)(C)C)n1)C(C)C [Compound 1850] | +++ (+++ is >60+)
21 | COC[C@@H](C)N(C)c1cncc(CN2C(=O)c3cccc(c3)S(=O)(=O)Nc3nc(cc(-c4c(C)cccc4C)n3)OC[C@H]2CCC(C)(C)C)n1 [Compound 1851] | +++ (+++ is >60+)
22 | Cc1cccc(C)c1-c1cc2nc(n1)NS(=O)(=O)c1cccc(c1)C(=O)N(Cc1cncc(C3CCC3)n1)[C@H](CCC(C)(C)C)CO2 [Compound 1852] | +++ (+++ is >60+)
23 | Cc1cccc(C)c1-c1cc2nc(n1)NS(=O)(=O)c1cccc(c1)C(=O)N(Cc1cnc3ccn(C)c3n1)[C@H](CC(C)(C)C)CO2 [Compound 1853] | +++ (+++ is >60+)

Row | Structure (SMILES) | HBE2 Activity at 3 μM (%)
24 | Cc1cccc(C)c1-c1cc2nc(n1)NS(=O)(=O)c1cccc(c1)C(=O)N(Cc1cncc(N3CC[C@H]4CC[C@H]43)n1)[C@H](CCC(C)(C)C)CO2 [Compound 1854] | +++ (+++ is >60+)
25 | COC[C@H]1CCCCN1c1cncc(CN2C(=O)c3cccc(c3)S(=O)(=O)Nc3nc(cc(-c4c(C)cccc4C)n3)OC[C@H]2CCC(C)(C)C)n1 [Compound 1857] | +++ (+++ is >60+)
26 | Cc1cccc(C)c1-c1cc2nc(n1)NS(=O)(=O)c1cccc(c1)C(=O)N(Cc1cnc3c(cc(C(C)C)n3C)n1)[C@H](CC(C)(C)C)CO2 [Compound 1858] | +++ (+++ is >60+)
27 | CCC(C)(C)C[C@@H]1COc2cc(-c3c(C)cccc3C)nc(n2)NS(=O)(=O)c2cccc(c2)C(=O)N1Cc1cncc(N2CC[C@H]2C)n1 [Compound 1860] | ++ (++ is 30-60%)
28 | CCC(C)(C)C[C@@H]1COc2cc(-c3c(C)cccc3C)nc(n2)NS(=O)(=O)c2cccc(c2)C(=O)N1Cc1cncc(N2CC[C@H]2C)n1 [Compound 1861] | +++ (+++ is >60+)
29 | CCC(C)(C)C[C@@H]1COc2cc(-c3c(C)cccc3C)nc(n2)NS(=O)(=O)c2cccc(c2)C(=O)N1Cc1cncc(N2CCCC[C@H]2C)n1 [Compound 1862] | ++ (++ is 30-60%)
30 | CCC(C)(C)C[C@@H]1COc2cc(-c3c(C)cccc3C)nc(n2)NS(=O)(=O)c2cccc(c2)C(=O)N1Cc1cncc(N2CCCC[C@H]2C)n1 [Compound 1863] | +++ (+++ is >60+)
31 | CC[C@H]1CCN1c1cncc(CN2C(=O)c3cccc(c3)S(=O)(=O)Nc3nc(cc(-c4c(C)cccc4C)n3)OC[C@H]2CCC(C)(C)C)n1 [Compound 1864] | +++ (+++ is >60+)
32 | Cc1cccc(C)c1-c1cc2nc(n1)NS(=O)(=O)c1cccc(c1)C(=O)N(Cc1cncc(N3CCC[C@H]3C3CC3)n1)[C@H](CC1CCCCC1)CO2 [Compound 1866] | +++ (+++ is >60+)
33 | COC[C@@H]1CCCN1c1cncc(CN2C(=O)c3cccc(c3)S(=O)(=O)Nc3nc(cc(-c4c(C)cccc4C)n3)OC[C@H]2CC2CCCCC2)n1 [Compound 1867] | +++ (+++ is >60+)
34 | Cc1cccc(C)c1-c1cc2nc(n1)NS(=O)(=O)c1cccc(c1)C(=O)N(Cc1cncc(N3CC[C@H]3COC(C)C)n1)[C@H](CCC(C)(C)C)CO2 [Compound 1868] | +++ (+++ is >60+)
35 | COCC1(CN(C)c2cncc(CN3C(=O)c4cccc(c4)S(=O)(=O)Nc4nc(cc(-c5c(C)cccc5C)n4)OC[C@H]3CCC(C)(C)C)n2)CC1 [Compound 1876] | +++ (+++ is >60+)
36 | Cc1cccc(C)c1-c1cc2nc(n1)NS(=O)(=O)c1cccc(c1)C(=O)N(Cc1cncc(C3CCOCC3)n1)[C@H](CCC(C)(C)C)CO2 [Compound 1879] | +++ (+++ is >60+)
37 | Cc1cccc(C)c1-c1cc2nc(n1)NS(=O)(=O)c1cccc(c1)C(=O)N(Cc1cnc3cc(C(C)C)oc3n1)[C@H](CC(C)(C)C)CO2 [Compound 1882] | +++ (+++ is >60+)
38 | Cc1cccc(C)c1-c1cc2nc(n1)NS(=O)(=O)c1cccc(c1)C(=O)N(Cc1cnc3c(n1)N(C)C(C)(C)C3)[C@H](CC(C)(C)C)CO2 [Compound 1883] | +++ (+++ is >60+)
39 | Cc1cccc(C)c1-c1cc2nc(n1)NS(=O)(=O)c1cccc(c1)C(=O)N(Cc1cncc(N(C)[C@H]3C[C@@H](C)C3)n1)[C@H](CCC(C)(C)C)CO2 [Compound 1884] | +++ (+++ is >60+)
40 | Cc1cccc(C)c1-c1cc2nc(n1)NS(=O)(=O)c1cccc(c1)C(=O)N(Cc1cncc(N(C)[C@H]3C[C@H](C)C3)n1)[C@H](CCC(C)(C)C)CO2 [Compound 1885] | +++ (+++ is >60+)
41 | Cc1cccc(C)c1-c1cc2nc(n1)NS(=O)(=O)c1cccc(c1)C(=O)N(Cc1cncc(N3CCC[C@H]3C)n1)[C@H](CC1CCCC1)CO2 [Compound 1888] | +++ (+++ is >60+)
42 | Cc1cccc(C)c1-c1cc2nc(n1)NS(=O)(=O)c1cccc(c1)C(=O)N(Cc1cnc3cc(C(C)C)n(C)c3n1)[C@H](COC1CC1)CO2 [Compound 1889] | +++ (+++ is >60+)
43 | Cc1cccc(C)c1-c1cc2nc(n1)NS(=O)(=O)c1cccc(c1)C(=O)N(Cc1cncc(N(C)C3CCC3)n1)[C@H](COC1CC1)CO2 [Compound 1893] | +++ (+++ is >60+)
44 | Cc1cccc(C)c1-c1cc2nc(n1)NS(=O)(=O)c1cccc(c1)C(=O)N(Cc1cncc(N3CCCC[C@H]3C)n1)[C@@H](C1CC(C)(C)C1)CO2 [Compound 1898] | +++ (+++ is >60+)
45 | Cc1cccc(C)c1-c1cc2nc(n1)NS(=O)(=O)c1cccc(c1)C(=O)N(Cc1cncc(N3CCC[C@H]3C)n1)[C@H](CC1CC(C)(C)C1)CO2 [Compound 1899] | +++ (+++ is >60+)
46 | Cc1cccc(C)c1-c1cc2nc(n1)NS(=O)(=O)c1cccc(c1)C(=O)N(Cc1cncc(N3CCC[C@H]3C)n1)[C@H](CC1CC(C)(C)C1)CO2 [Compound 1900] | + (+ is <300))
